Here are results for 6 compounds from PMC6194685, “The antityrosinase and antioxidant activities of flavonoids dominated by the number and location of phenolic hydroxyl groups” (Chinese Medicine, 2018).

Test [1] in a line: ABTS free radical scavenging activity. Particulars: n = 3; read-out: IC50, ABTS free radical scavenging capacity. The protocol: According to the references of Wan et al., ABTS free radical scavenging capacity was measured. […] ABTS ^+ was produced by reacting 2.45 mmol/L potassium persulfate (K2S2O8) with the ABTS stock solution. The reaction lasted 12–16 h at room temperature in the dark. […] Samples (0.5 mL) were added to ABTS^+ (5 mL) for 6 min. The control group contains 0.5 mL of ethanol and 5 mL of ABTS^+ solution. Each sample was examined in three times and averaged.

The nature of test [2]: Superoxide free radical scavenging activity (pyrogallol self-oxidation). Particulars: n = 3; read-out: IC50, superoxide free radical scavenging capacity. The protocol: According to the references of Shen et al., superoxide free radical scavenging capacity was measured using Varioskan Flash multifunction microplate reader (Thermo scientific, USA) and 96 wells plates. Each well was added 264 μL PBS buffer (pH = 8.2), 12 μL samples of different concentrations, 25 °C for 10 min. Then 24 μL of 1.25 mmoL/L pyrogallol solution was added and shaken 3 s quickly. The blank group is ethanol. Absorbance values were measured every 30 s. The reaction lasted 5 min in 37 °C. The wavelength used was 320 nm. Each sample was measured in triplicate and averaged. The slope is the self-oxidation rate of pyrogallol. The lower slope indicated the better superoxide free radicals scavenging capacity. Each sample was examined in three times and averaged. The inhibitory rate was examined according to the formula:5 Superoxidefreeradicalscavengingactivity%=SC-SS/SC×100% where SC is the slope value without samples and SS is the slope value with samples.

For test [3], the system named is lipid peroxidation in rat liver mitochondria. In words: Lipid peroxidation assay in liver mitochondria in vitro (Fe2+/vitamin C). Format: biochemical, Sprague–Dawley (SD) rats. Particulars: n = 3, read-out: IC50, inhibiting lipid peroxidation. As to the method:
Using the diagnostic kits from Biyuntian (Shanghai, China), liver mitochondria were obtained. The liver mitochondria from Sprague–Dawley (SD) rats were obtained, according to the references of Zuo et al.. In the tubes, 1 mL of mitochondria liquid, 0.5 mL of antioxidant solution, 0.25 mL of 1 mM Vitamin C, and 0.25 mL of 0.1 mM Fe^2+ were added in turn. The positive control group contains 0.5 mL of 0.05 M PBS buffer, instead of the antioxidant solution. The blank group was added 1 mL of mitochondrial liquid and 1 mL of 0.05 M PBS buffer. […] The test tubes were placed in the water for 30 min at 95 °C, then centrifuged for 10 min at 1372g. The wavelength used was 532 nm. Each sample was examined in three times and averaged.

Test [4] is described as follows: DPPH free radical scavenging activity. Particulars: n = 3; read-out: IC50, DPPH free radical scavenging capacity. As to the method:
According to the references of Lee et al., DPPH free radical scavenging capacity was measured. […] In room temperature and a dark environment, the reaction lasted 30 min. […] Each sample was examined in three times and averaged.
(The DPPH test is a chemical assay of radical scavenging.)

Test [5] concerns the target T1, mushroom tyrosinase (Agaricus bisporus, UniProt C7FF04). In words: Determination of the inhibition type and inhibition constant (Lineweaver–Burk plots). It is filed as biochemical. Particulars: plots of enzyme activity versus enzyme concentration, oxidation of L-DOPA.
Test [6] is described as follows: Hydroxyl free radical scavenging activity. Particulars: n = 3; read-out: IC50, hydroxyl free radical scavenging capacity.
Protocol: In the tube, 0.2 mL of samples, 1 mL of PBS buffer (pH = 7.4),0.2 mL of 5 mmol/L phenanthroline, 0.2 mL of 7.5 mmol/L FeSO4, 0.2 mL of 0.05% H2O2, 3.2 mL of ethanol were added in turn for 20 min in 37 °C. The wavelength used was 536 nm. Each sample was examined in three times and averaged. The hydroxyl free radical scavenging activity was examined according to the formula:4 Hydroxylfreeradicalscavengingactivity%=AC-AS/AC×100% where AS is the absorbance value with samples and AC is the absorbance value without samples.
Test [7] concerns the target T1, mushroom tyrosinase. As to the kind of experiment: Determination of the inhibition type and inhibition constant (Lineweaver–Burk plots). Format: biochemical. Particulars: for inhibition type: Lineweaver–Burk double-reciprocal plots, tyrosinase diphenolase; for KIS (inhibitor binding with enzyme–substrate complex): plot of vertical intercept (1/Vmapp) versus inhibitor concentration, oxidation of L-DOPA. The protocol:
By Lineweaver–Burk plot, the inhibition type was assayed. The inhibition constant was assayed by the second plots of the apparent Km/Vmapp or 1/Vmapp versus the concentration of the inhibitor.

On the set-up of test [8]: method as in Xu [31]. Particulars: ref Xu [31]; cited from earlier work.
Details of test [9]: method as in Xu [31]. Particulars: ref Xu [31]; cited from earlier work. The source holds these as a separate data set.
On the set-up of test [10]: method as in Xu [31]. Particulars: ref Xu [31]; cited from earlier work. The source holds these as a separate data set.
For test [11] the following is noted: discussion; no reference given; cited from earlier work.
For test [12] the following is noted: discussion; no reference given; cited from earlier work. This is another data set of the same source.

T1 sequence (C7FF04 2-392): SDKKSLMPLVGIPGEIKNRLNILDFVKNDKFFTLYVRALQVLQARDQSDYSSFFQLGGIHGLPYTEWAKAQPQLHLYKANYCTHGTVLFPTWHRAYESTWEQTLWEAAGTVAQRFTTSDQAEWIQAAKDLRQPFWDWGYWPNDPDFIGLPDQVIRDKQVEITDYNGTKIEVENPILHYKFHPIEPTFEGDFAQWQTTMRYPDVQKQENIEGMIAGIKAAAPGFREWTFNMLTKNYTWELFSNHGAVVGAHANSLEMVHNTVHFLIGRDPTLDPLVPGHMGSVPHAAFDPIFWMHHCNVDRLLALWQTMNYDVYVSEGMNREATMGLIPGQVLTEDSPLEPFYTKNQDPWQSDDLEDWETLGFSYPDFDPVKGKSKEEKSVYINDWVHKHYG
T1 sequence (G1K3P4 1-150 partner): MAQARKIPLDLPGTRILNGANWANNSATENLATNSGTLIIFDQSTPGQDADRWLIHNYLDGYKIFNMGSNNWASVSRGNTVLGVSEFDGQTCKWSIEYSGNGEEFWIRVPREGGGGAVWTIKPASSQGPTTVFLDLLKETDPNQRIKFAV

As a reminder, the IC50 is the concentration that inhibits the measured activity by half. `O=c1cc(-c2ccccc2)oc2cc(O)c(O)c(O)c12` [Baicalein]: the IC50 in test [1] amounted to 9.09 µM; in test [2], 16.1 µM; in [3], 12.5 µM; in test [4] it was 58.6 µM; in [6] it was 11.6 µM. Also, the “inhibitory mechanism (reversibility)” value against mushroom tyrosinase [5] is “reversible inhibitors”. Moreover, the inhibition type entry against mushroom tyrosinase [7] was “same inhibitor type as shikonin”. The “KIS (inhibitor binding with enzyme–substrate complex)” value at mushroom tyrosinase [7] stood at 38.4 µM.
With `O=C1c2c(O)cc(O)cc2O[C@H](c2cc(O)c(O)c(O)c2)[C@H]1O` [Dihydromyricetin], the “scavenging capacity of hydroxyl radical (·OH)” value in [8] is given as 83.9%. The IC50 in test [1] stood at 3.41 µM; in test [2] it was 7.6 µM; in test [3] it was 6.25 µM; in [4], 12.4 µM; in test [6] it was 4.2 µM. Besides, on mushroom tyrosinase [5], the “inhibitory mechanism (reversibility)” value is “reversible inhibitors”. The “scavenging capacity of alkane radical (ROO·)” value in test [9] is on record as 63.9%. The “scavenging capacity of superoxide radical (O2·)” value in test [10] is 90.0%. Besides, the inhibition type result at mushroom tyrosinase [7] was “same inhibitor type as shikonin”. Moreover, the “KIS (inhibitor binding with enzyme–substrate complex)” value on mushroom tyrosinase [7] was 23.6 µM.
`O=C(/C=C/c1ccc(O)c(O)c1)O[C@H](Cc1ccc(O)c(O)c1)C(=O)O` [Rosmarinic acid]: the IC50 in test [1] amounted to 6.82 µM; in test [2], 12.3 µM; in [3], 8.33 µM; in [4] it was 28.5 µM; in test [6] it was 8.3 µM. Further, on mushroom tyrosinase [5], the “inhibitory mechanism (reversibility)” value is “reversible inhibitors”. In addition, the inhibition type entry against mushroom tyrosinase [7] was “same inhibitor type as shikonin”. Moreover, the “KIS (inhibitor binding with enzyme–substrate complex)” value at mushroom tyrosinase [7] is 29.8 µM.
In the case of `CC(C)=CC[C@@H](O)C1=CC(=O)c2c(O)ccc(O)c2C1=O` [Shikonin], the IC50 was 27.3 µM in [1]; 31.5 µM in test [2]; 16.7 µM in test [3]; 83.2 µM in test [4]; 18.3 µM in test [6]. Besides, the “inhibitory mechanism (reversibility)” value against mushroom tyrosinase [5] is reported as “reversible inhibitor”. In addition, the reducing ability in test [11] was 0.431%. Further, the inhibition type result at mushroom tyrosinase [7] is “competitive–uncompetitive mixed type inhibitor”. Further, on mushroom tyrosinase [7] (plot of intercept versus concentration of shikonin), the “KIS (Fig. 3c)” value stood at 48.6 µmol/L. In addition, on mushroom tyrosinase [7], the “KIS (inhibitor binding with enzyme–substrate complex)” value turned out to be 48.6 µM.
As to `CC(C)=CCCC1=CC(=O)c2c(O)ccc(O)c2C1=O` [deoxy-shikonin], in test [12], the “maximum inhibition, DPPH-radical scavenging assay” value is given as 0.440%.
In the case of Isoeugenol, the IC50 came to 36.4 µM in [1]; 38.2 µM in [2]; 25.1 µM in test [3]; 102 µM in test [4]; 32.5 µM in [6]. Further, at mushroom tyrosinase [5], the “inhibitory mechanism (reversibility)” value is “reversible inhibitors”. Moreover, the inhibition type entry against mushroom tyrosinase [7] is on record as “same inhibitor type as shikonin”. In addition, the “KIS (inhibitor binding with enzyme–substrate complex)” value at mushroom tyrosinase [7] was 64.7 µM.
